Experimental data as given in patent publication EP0603240B1, “SAFENING HERBICIDAL PYRAZOLYLSULFONYLUREAS” (priority 1991, dated 1993).

Columns and labels:
corn [1] = assay: Example 10, Procedure II: Herbicide No. 1 + propachlor (No. 5) with antidotes; type: in vivo; settings: no antidote
Procedure: (§1) Containers were filled and compacted with a fumigated silt loam top soil to a depth of about 1.3 cm from the top of the container. A first container was designated as an untreated control, a second container was designated as a herbicide control, and a third container was designated as a herbicide + antidote test container. Each of the containers was seeded with a crop species. A measured amount of herbicide dispersed or dissolved in acetone was applied to a measured quantity of soil. To this same quantity of soil treated with herbicide, there was added a measured amount of antidote dispersed or dissolved in acetone. The quantity of soil treated with the herbicide and antidote was thoroughly mixed to incorporate the herbicide and antidote in the soil uniformly. The seed bed in the third container of soil was covered with the soil treated with the herbicide and antidote and the container was leveled. For each test series, the seed beds of the first and second containers were likewise covered by soil layers. the cover layer of the first container was not treated with herbicide or antidote.
(§2) The containers were then placed on a bench in a greenhouse and sub-irrigated as required for the duration of the test. […] Plant response is measured in terms of percent injury. Antidote efficacy is indicated as the difference in plant injury by the herbicide(s) without the antidote and with the antidote.
(§3) This procedure is the same as Procedure I, but modified in the manner that after incorporation of the chemicals (herbicide and antidote) the containers with the covered seedbed were treated with an initial overhead irrigation equivalent to 0.6 cm rainfall, then subsequently sub-irrigated as required on greenhouse benches.
In this test, the safening effect of various antidotes on the herbicidal combination of Herbicide No. 1 and another α-chloroacetanilide co-herbicide, propachlor, (Herbicide No. 5) was investigated. Propachlor is the active ingredient in the commercial herbicide RAMROD®. Procedure II was also used in this test as in the preceding example.

corn [2] = assay: Example 12, Procedure II: Herbicide No. 1 + acetochlor (No. 6) with thirteen antidotes; type: in vivo; settings: for % Injury Corn: no antidote
Outline: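 Herbicide and antidote in acetone were mixed into silt loam used to cover the corn seed bed, alongside untreated and herbicide-only controls. After incorporation, an overhead irrigation equal to 0.6 cm rainfall was given, then sub-irrigation in a greenhouse. Injury was scored as percent; safening is the injury difference without versus with antidote.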

corn [3] = assay: Example 2, Procedure II: dichloroacetamide antidotes against Herbicide No. 1; type: in vivo; settings: Herb. No. 1 0.14 kg/ha, no antidote
Procedure: as §1, §2, §3
In this example, a plurality of dichloroacetamide antidotes were tested for their safening efficacy against Herbicide No. 1 in corn, using Procedure II. In this test the weed was velvetleaf; barnyardgrass was not present in this test.

corn [4] = assay: Example 25, greenhouse preemergence test: Antidote Nos. 1 and 2 against Herbicide Nos. 1-3; type: in vivo, Corn (Pioneer 3424 variety); settings: Zea mays, pre-emergence, Preemergence, no antidote
Outline: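 Greenhouse preemergence application; herbicides as wettable powders, dichlormid as emulsifiable concentrate, naphthalic anhydride as conventional seed coating on corn before planting. Rates in g active ingredient/ha; naphthalic anhydride amount not quantified. Corn injury scored as percent growth inhibition.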

corn [5] = assay: Example 1, greenhouse Procedure II: antidotes against Herbicide No. 1; type: in vivo; settings: Herb. No. 1 0.14 kg/ha, no antidote
Procedure: as §1, §2, §3
In the series of greenhouse tests described below, for routine screening purposes the herbicide/antidote compositions were tested in crop/weed combinations involving corn as the crop and either or both of the weeds barnyardgrass (Echinochloa crusgalli), a monocotyledonous weed, and velvetleaf (Abutilon theophrasti), a dicotyledonous weed. In the tables below, these weeds are indicated by the symbols "BYG" and "VL", respectively.
This example was designed to investigate the antidotal efficacy of a plurality of antidotes against Herbicide No. 1 in corn in the presence of barnyard grass and velvetleaf. The antidotes used in this example were Antidote Nos. 1-10, 12, 13 and 15.
The test in this example was conducted as described above for Procedure II. The antidotes were applied to the soil cover layer by pipet after spraying on the herbicide followed by incorporation and simulated rain.

corn [6] = assay: Example 15, Procedure II: Herbicide No. 1 + butylate (No. 10) with antidotes; type: in vivo; settings: no antidote
Procedure: as §1, §2, §3
This example describes experiments designed to investigate the antidotal efficacy of a plurality of antidotes against the herbicidal action of a combination of Herbicide No. 1 and butylate in corn and the prevalent weeds barnyardgrass and velvetleaf. The antidotes used in these experiments were Nos. 1-10, 12, 13 and 15.
The test procedure used in these experiments was that of Procedure II described above. The antidotes were applied to a soil cover layer by pipet after spraying the herbicides onto the soil, followed by incorporation and overhead irrigation.

corn [7] = assay: Example 11, Procedure II: Herbicide No. 1 + metazachlor (No. 14) with antidotes; type: in vivo; settings: no antidote
Procedure: as §1, §2, §3
In this example, yet another α-chloroacetanilide co-herbicide, metazachlor (Herbicide No. 14) was combined with Herbicide No. 1 for investigation of the effect of various safeners on that composition. Metazachlor is the active ingredient in the commercial herbicide BUTISAN® S, used here as a 500 g/L formulation.

corn [8] = assay: Example 4, Procedure I: Antidote Nos. 15 and 16 against Herbicide No. 1; type: in vivo; settings: no antidote, average of two replicates
Procedure: as §1, §2
This example describes tests with Antidote Nos. 15 and 16 to safen Herbicide No. 1 according to Procedure I using corn and the weeds barnyardgrass and velvetleaf as the test plants.

[9] = Herbicide No.1 0.14 kg/ha alone
[10] = Herbicide No.1 0.56 kg/ha alone
[11] = Herbicide No.1 1.12 kg/ha alone

Question: Which “% Injury Corn” value (corn [1]; [9]) does the source give for `COC(=O)c1c(Cl)nn(C)c1S(=O)(=O)NC(=O)Nc1nc(OC)cc(OC)n1` [Herbicide No. 1] here?
Answer: The value was 20%.

Question: And the “% Injury Corn” value (corn [1]; [10])?
Answer: The value was 30%.

Question: And the combined corn injury (corn [2]; Herbicide No. 1 0.56 kg/ha + Herbicide No. 6 2.24 kg/ha, without an antidote)?
Answer: The combined corn injury was 45%.

Question: What about the injury to corn (corn [2]; Herbicide No. 1 0.56 kg/ha, without an antidote) of the same molecule?
Answer: Its injury to corn is 20%.

Question: What about the “% Injury Corn” value (corn [2]; [9]) of the same molecule?
Answer: The value was 15%.

Question: And the “% Injury Corn” value (corn [2]; [10])?
Answer: Its value is 20%.

Question: What about the “% Injury Corn” value (corn [3]) of the same molecule?
Answer: Its value is 10%.

Question: And the inhibition at 0.25 g/ha (corn [4]; herbicide alone 0.25 G/ha, read-out: % Inhibition Corn)?
Answer: Its inhibition at 0.25 g/ha is 22.3%.

Question: And the inhibition at 0.74 g/ha (corn [4]; herbicide alone 0.74 G/ha)?
Answer: The inhibition at 0.74 g/ha was 32.3%.

Question: And the inhibition at 2.5 g/ha (corn [4]; herbicide alone 2.5 G/ha)?
Answer: Its inhibition at 2.5 g/ha is 49.9%.

Question: What about the “% Injury Corn” value (corn [5]) of the same molecule?
Answer: The value was 5%.

Question: And the “% Injury Corn” value (corn [6]; [10])?
Answer: The value was 20%.

Question: And the “% Injury Corn” value (corn [6]; [11])?
Answer: Its value is 20%.

Question: And the “% Injury Corn” value (corn [7]; [10])?
Answer: Its value is 65%.

Question: What about the “% Injury Corn” value (corn [7]; [11]) of the same molecule?
Answer: The value was 65%.

Question: What about the “% Injury Corn” value (corn [8]; Herb. No. 1 4.48 kg/ha) of the same molecule?
Answer: The value was 85%.

Question: And the “% Injury Corn” value (corn [8]; Herb. No. 1 6.72 kg/ha)?
Answer: The value was 90%.
